Test results taken from ChEMBL document CHEMBL1201862, “PubChem BioAssay data set” (2004).
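48-hour exposure; five concentrations; linearly interpolated endpoints. GI50 = concentration required for 50% inhibition of growth.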 The source made the active and inactive calls. Cut-off read from the data, not from the text of the source: active = GI50 up to about 1.1 µM and inactive = higher.

Columns and labels:
Assay in all cases: DTP human tumour cell line panel, 48 h
786-0 = tested on: 786-0
A549 = tested on: A549
ACHN = tested on: ACHN
COLO 205 = tested on: COLO 205
HCT-15 = tested on: HCT-15
HL-60 = tested on: HL-60
HOP-62 = tested on: HOP-62
IGROV-1 = tested on: IGROV-1
K562 = tested on: K562
KM12 = tested on: KM12
LOX IMVI = tested on: LOX IMVI
M14 = tested on: M14
MCF7 = tested on: MCF7
MDA-N = tested on: MDA-N
NCI-H522 = tested on: NCI-H522
OVCAR-8 = tested on: OVCAR-8
SF-268 = tested on: SF-268
SF-539 = tested on: SF-539
SNB-19 = tested on: SNB-19
SR = tested on: SR

Compound | GI50 (786-0) | GI50 (A549) | GI50 (ACHN) | GI50 (COLO 205) | GI50 (HCT-15) [µM] | GI50 (HL-60) | GI50 (HOP-62) | GI50 (IGROV-1) | GI50 (K562) | GI50 (KM12) | GI50 (LOX IMVI) | GI50 (M14) | GI50 (MCF7) | GI50 (MDA-N) | GI50 (NCI-H522) | GI50 (OVCAR-8) | GI50 (SF-268) | GI50 (SF-539) | GI50 (SNB-19) | GI50 (SR)
O=C(N/N=C/c1ccc([N+](=O)[O-])cc1)Nc1ccc(Br)cc1 | 84.7 µM (inactive) | > 100 µM (inactive) | 60.7 µM (inactive) | 63.2 µM (inactive) | > 100 | 40.5 µM (inactive) | 32.9 µM (inactive) | 55.5 µM (inactive) | 54 µM (inactive) | > 100 µM (inactive) | 51.1 µM (inactive) | 45.2 µM (inactive) | 34 µM (inactive) | 44.6 µM (inactive) | 64.7 µM (inactive) | 40.9 µM (inactive) | 52.2 µM (inactive) | > 100 µM (inactive) | 76.4 µM (inactive) | 43.2 µM (inactive)
COC(=O)C1Cc2cccc(C)c2C1 (stereo not given) | > 100 µM (inactive) | > 100 µM (inactive) | > 100 µM (inactive) | > 100 µM (inactive) | 37.3 | 65.5 µM (inactive) | > 100 µM (inactive) | > 100 µM (inactive) | 48.4 µM (inactive) | > 100 µM (inactive) | 42 µM (inactive) | > 100 µM (inactive) | 19.1 µM (inactive) | > 100 µM (inactive) | 51.8 µM (inactive) | > 100 µM (inactive) | > 100 µM (inactive) | > 100 µM (inactive) | > 100 µM (inactive) | 79.3 µM (inactive)
COc1cccc(OC)c1/C=C1\OC(=O)c2cccc(OC)c21 | 5.02 µM (inactive) | 7.36 µM (inactive) | 8.59 µM (inactive) | 2.88 µM (inactive) | 2.24 | 0.931 µM (active) | 5.62 µM (inactive) | 4.71 µM (inactive) | 0.527 µM (active) | 1.74 µM (inactive) | 6.28 µM (inactive) | 4.1 µM (inactive) | 3.14 µM (inactive) | 0.596 µM (active) | 2.5 µM (inactive) | 4.59 µM (inactive) | 6.4 µM (inactive) | 2.3 µM (inactive) | 4.74 µM (inactive) | 0.92 µM (active)
C[N+]12CCCCC1C(COc1cccc3cccnc13)CCC2 (stereo not given) | > 100 µM (inactive) | > 100 µM (inactive) | > 100 µM (inactive) | > 100 µM (inactive) | > 100 | > 100 µM (inactive) | 72.9 µM (inactive) | 75.5 µM (inactive) | 77.4 µM (inactive) | > 100 µM (inactive) | 93.5 µM (inactive) | > 100 µM (inactive) | > 100 µM (inactive) | 93.5 µM (inactive) | > 100 µM (inactive) | > 100 µM (inactive) | > 100 µM (inactive) | > 100 µM (inactive) | > 100 µM (inactive) | > 100 µM (inactive)
COc1cc([C@@H]2c3cc4c(cc3[C@@H](Nc3ccccc3C(=O)c3ccccc3)[C@H]3COC(=O)[C@H]23)OCO4)cc(OC)c1OC | 0.618 µM (active) | 0.753 µM (active) | 0.535 µM (active) | 0.472 µM (active) | 0.444 | 0.212 µM (active) | 2.11 µM (inactive) | 0.836 µM (active) | 0.35 µM (active) | 0.3 µM (active) | 0.313 µM (active) | 0.729 µM (active) | 0.379 µM (active) | 0.316 µM (active) | 0.31 µM (active) | 0.47 µM (active) | 0.855 µM (active) | 0.259 µM (active) | 1.37 µM (inactive) | 0.332 µM (active)
C/C=C/[C@H]1O[C@@](O)([C@@H](C)[C@H](O)[C@H](C)[C@H]2OC(=O)/C(OC)=C/C(C)=C/[C@@H](C)[C@@H](O)[C@@H](CC)[C@@H](O)[C@H](C)C/C(C)=C/C=C/[C@@H]2OC)C[C@H](OC2CC(O)C(O)C(C)O2)[C@@H]1C (stereo not given in full) | < 0.0075 µM (active) | < 0.0075 µM (active) | < 0.0075 µM (active) | < 0.0075 µM (active) | < 0.0075 | < 0.0075 µM (active) | < 0.0075 µM (active) | < 0.0075 µM (active) | < 0.0075 µM (active) | < 0.0075 µM (active) | < 0.0075 µM (active) | < 0.0075 µM (active) | < 0.0075 µM (active) | < 0.0075 µM (active) | < 0.0075 µM (active) | < 0.0075 µM (active) | < 0.0075 µM (active) | < 0.0075 µM (active) | 3.42 µM (inactive) | < 0.0075 µM (active)
C=CCN(C(C)=O)c1cc(OCc2ccccc2)c2c(c1)c(C)cn2S(=O)(=O)c1ccccc1 | 6.21 µM (inactive) | 4.06 µM (inactive) | 4.36 µM (inactive) | 3.78 µM (inactive) | 4.79 | 4.89 µM (inactive) | 11.5 µM (inactive) | 10 µM (inactive) | 2.83 µM (inactive) | 3.85 µM (inactive) | 5.07 µM (inactive) | 5.4 µM (inactive) | 3.93 µM (inactive) | 4.66 µM (inactive) | 4.08 µM (inactive) | 5.57 µM (inactive) | 5.37 µM (inactive) | 11.5 µM (inactive) | 7.08 µM (inactive) | 0.0566 µM (active)
O=C1C(Br)=CC2(C=C1Br)CCNC1=C2C(=O)c2cccnc2C1=O | 15.3 µM (inactive) | 14.8 µM (inactive) | 17 µM (inactive) | 16.4 µM (inactive) | 5.14 | 3.49 µM (inactive) | 8.93 µM (inactive) | 9.18 µM (inactive) | 2.44 µM (inactive) | 16.1 µM (inactive) | 5.48 µM (inactive) | 8.65 µM (inactive) | 13.8 µM (inactive) | 1.77 µM (inactive) | 4.65 µM (inactive) | 15.8 µM (inactive) | 13.3 µM (inactive) | 8.99 µM (inactive) | 7.23 µM (inactive) | 2.93 µM (inactive)
CCn1c(=O)c2nc(SC)sc2n(-c2ccccc2)c1=O | > 100 µM (inactive) | > 100 µM (inactive) | > 100 µM (inactive) | > 100 µM (inactive) | > 100 | > 100 µM (inactive) | > 100 µM (inactive) | > 100 µM (inactive) | > 100 µM (inactive) | > 100 µM (inactive) | > 100 µM (inactive) | > 100 µM (inactive) | > 100 µM (inactive) | > 100 µM (inactive) | > 100 µM (inactive) | > 100 µM (inactive) | > 100 µM (inactive) | > 100 µM (inactive) | > 100 µM (inactive) | > 100 µM (inactive)
O=C(NNC(=O)c1ccccc1O)c1ccccc1O | 0.141 µM (active) | 0.0361 µM (active) | 0.0507 µM (active) | 0.355 µM (active) | 0.11 | 0.0528 µM (active) | 2.31 µM (inactive) | < 0.0255 µM (active) | < 0.0221 µM (active) | 0.413 µM (active) | 0.0918 µM (active) | 0.0785 µM (active) | 0.43 µM (active) | 0.0247 µM (active) | 0.112 µM (active) | 0.929 µM (active) | < 0.0233 µM (active) | 0.033 µM (active) | 0.0525 µM (active) | 0.0366 µM (active)
